Molecules are shown by their SMILES.

The data set in a line: gradient 5% acetonitrile 3 min, to 50% in 2 min, to 85% in 15 min, held 3 min, 100 µL/min. The following applies: column: Zorbax Extend-C18 2.1 x 50 mm; eluents: water / acetonitrile, 0.1% formic acid. The procedure, abridged: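 Each retention time is based on an adduct peak selected computationally and verified by manual inspection. Measurements used HPLC–quadrupole time-of-flight mass spectrometry in positive and negative ionization mode on mixtures of ~100 pure standards. Chromatography ran on a Zorbax Extend-C18 column (2.1 × 50 mm, 1.8 μm) at 100 μL/min with water and acetonitrile, each containing 0.1% formic acid, and dead and dwell volumes of 40 μL and 900 μL.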
In turn, `O=C(c1cccc(OC(F)(F)F)c1)N1CCN(c2cc(-c3cccs3)[nH]n2)CC1` showed an RP-LC retention time of 828 s.

As for `CCC(CC)C(=O)N1CCCN(C2=NS(=O)(=O)C(c3ccc(F)cc3)=C2C)CC1`, the RP-LC retention time worked out at 811 s.

Compound `O=C(Nc1ccc2c(c1)OCO2)c1cn(-c2cc(N3CCCC3)ncn2)cn1` came in with an RP-LC retention time of 808 s.

For `COc1cc(NC(=O)Cn2nc(N3CCCC3)c3ccccc3c2=O)cc(OC)c1`, the RP-LC retention time is 918 s.

Compound `CCOc1ccc(/C=C/C(=O)Nc2nc(-c3ccc4c(c3)N(CC)C(=O)CO4)cs2)cc1OC` showed an RP-LC retention time of 1020 s.

In turn, `CCn1cc(-c2nc(CC(=O)Nc3ccc(OC)c(F)c3)cs2)c2cccnc21` had an RP-LC retention time of 884 s.

As for `Cc1ccc(-n2c(=O)n(CC(=O)NCCN3CCN(C)CC3)c3cccnc32)cc1`, the RP-LC retention time came to 589 s.

Consider `Cc1ccc(-c2[nH]ncc2CNS(=O)(=O)c2cccc3nsnc23)cc1C`, for which the RP-LC retention time came out at 802 s.

In turn, `CCCc1cc(N2CCN(C(=O)c3ccc(C#N)cc3)CC2)nc2nnc(C)n12` had an RP-LC retention time of 610 s.

As to `O=C([C@@H]1CC(F)(F)CN1C(=O)CCn1c(=O)oc2ccccc21)N1CCCC1`, the RP-LC retention time came to 718 s.

On to `CC1CC(C)CN(CCCNC(=O)c2ccc3c(c2)NC(=O)CS3)C1` (configuration not stated), for which the RP-LC retention time was determined as 605 s.

On to `CCn1cc(-c2nc(CC(=O)NCc3ccc(F)cc3)cs2)c2cccnc21`, for which the RP-LC retention time amounted to 865 s.

As for `Cc1nc2cc(-c3noc(Cc4c(Cl)cccc4Cl)n3)ccc2o1`, the RP-LC retention time turned out to be 1130 s.

For the compound `CCCS(=O)(=O)N1CC(=O)N(c2ccc(F)cc2F)C(C)(C(=O)NC2CCCCCC2)C1` (configuration not stated), the RP-LC retention time was found to be 979 s.

On to `Cc1csc(NC(=O)Cc2cc(-c3cccs3)on2)n1`, for which the RP-LC retention time is 763 s.

With `COCCCNCc1ccc(-c2ccc(C(C)O)cc2)o1` (configuration not stated), the RP-LC retention time was found to be 600 s.

Turning to `COc1ccc(NC(=O)N2CCC3(C2)C(=O)N(C)c2ccc(OC)cc23)cc1` (configuration not stated), the RP-LC retention time was determined as 732 s.

In turn, `CCCn1cnc2cc(CNC(=O)COc3ccc(Cl)cc3C)ccc21` had an RP-LC retention time of 692 s.

With `COCc1cc(=O)n(CC(=O)Nc2cccc(C)c2)c(N)n1`, the RP-LC retention time is 622 s.

As for `Cc1ccccc1NC(=O)N1CCN(c2ccc(=O)n(-c3ccccc3)n2)CC1`, the RP-LC retention time came to 744 s.

The compound `Cc1ccc(CNc2c(-c3ccc(N(C)C)cc3)nc3ncccn23)cc1` yielded an RP-LC retention time of 889 s.

Compound `Cc1cc(C)cc(NC(=O)N2CCc3cn(C)c4cccc(c34)C2)c1` returned an RP-LC retention time of 1050 s.

Take `CC(=O)Nc1ccc(CC(=O)O)cc1`: the RP-LC retention time came to 620 s.

The compound `CCCNC(=O)C1c2ccccc2CCN1C(=O)C1CC1` (configuration not stated) returned an RP-LC retention time of 725 s.

Consider `COc1ccc(NC(=O)C2CCN(c3cncnc3N3CCOCC3)CC2)cc1`, for which the RP-LC retention time came out at 605 s.

The compound `CCOC(=O)c1nc(Nc2ccccc2Cl)c2ccccc2n1` showed an RP-LC retention time of 913 s.

Regarding `Cc1ccc(C)c(N2CCN(c3ccnc(SCC(=O)Nc4ccc5c(c4)OCO5)n3)CC2)c1`, the RP-LC retention time was found to be 858 s.

Regarding `Clc1ccccc1CSc1nnc(-c2ccc(Br)cc2)o1`, the RP-LC retention time amounted to 1400 s.

The compound `COCc1nncn1C1CCN(S(=O)(=O)c2ccc(C(F)(F)F)cc2)CC1` yielded an RP-LC retention time of 764 s.

In turn, `CCCNC(=O)c1ccc2ncn(C)c(=O)c2c1` displayed an RP-LC retention time of 596 s.

The compound `O=C(NCC1CCOCC1)Nc1cccc(Cl)c1` had an RP-LC retention time of 735 s.

Turning to `Cc1cc(NC(=O)CSc2nnc(NC(=O)c3ccc4c(c3)OCO4)s2)no1`, the RP-LC retention time was 727 s.

As to `C=CCn1nc2ccc(S(=O)(=O)N3CCC(C)CC3)cn2c1=O`, the RP-LC retention time stood at 843 s.

`Cc1ccc(CNC(=O)CCNc2c(-c3cccc(F)c3)nc3cnccn23)o1` displayed an RP-LC retention time of 700 s.

Consider `CCN(CC)S(=O)(=O)c1cc(-c2nc(C(C)C)cs2)sc1C`, for which the RP-LC retention time amounted to 1270 s.

With `COc1ccccc1CN[C@H]1CCCN[C@H]1c1ccccc1`, the RP-LC retention time amounted to 578 s.

Compound `CCN1CCCCc2cc(C(=O)NCC(N)=O)sc21` yielded an RP-LC retention time of 679 s.

`CN1C(=O)C2CCCCN2c2ccc(C(=O)NCCCN3CCCC3)cc21` (configuration not stated) came in with an RP-LC retention time of 586 s.

The compound `Cc1nc(C)c(C(=O)Nc2nc(-c3ccc(OC(C)C)cc3)cs2)s1` yielded an RP-LC retention time of 1020 s.

Turning to `CCN1CCn2cc(S(=O)(=O)Nc3cccc(C(=O)OC)c3)cc2C1=O`, the RP-LC retention time was determined as 703 s.

Take `Cc1noc(-c2ccc(-n3ncc(C(=O)N4CCN(c5ccccn5)CC4)c3C)nc2)n1`: the RP-LC retention time worked out at 624 s.

Take `CCN(CC)C(=O)Cn1nc(-c2nc(-c3ccc(F)cc3)no2)ccc1=O`: the RP-LC retention time stood at 861 s.

As for `Cc1cc(C)n2nc(SCC(=O)Nc3ccc(F)cc3)nc2n1`, the RP-LC retention time came out at 724 s.

`CCN1CCN(C(=O)CN2C(=O)C3CCCCN3c3ccc(S(=O)(=O)N(C)C)cc32)CC1` (configuration not stated) had an RP-LC retention time of 620 s.

Regarding `CCOc1ccc(NC(=O)CN2CCN(Cc3ccc(C)cc3)C(=O)C2=O)cc1`, the RP-LC retention time is 799 s.

Compound `COc1cc(OC)c(NC(=O)N2CC(n3cnnc3-c3ccccc3)C2)cc1Cl` returned an RP-LC retention time of 703 s.

For the compound `Cc1cc2c(=O)n(CC(=O)Nc3ccc(C)c(Cl)c3)ccc2s1`, the RP-LC retention time is 896 s.

In turn, `Clc1ccccc1-c1noc(Cc2nc(-c3ccccc3)cs2)n1` had an RP-LC retention time of 1180 s.

`COc1ccc(OC)c(N2CC(c3nc(-c4ccc5c(c4)OCO5)no3)CC2=O)c1` (configuration not stated) had an RP-LC retention time of 886 s.

In turn, `CCOC(=O)CCNC(=O)N1CCN(Cc2nc3cccnc3n2-c2ccccc2)CC1` registered an RP-LC retention time of 590 s.

`Cn1c(N2CCC(C(=O)N3CCC(Cc4ccccc4)CC3)CC2)cc(=O)n(C)c1=O` had an RP-LC retention time of 824 s.

`CNC(=O)NCC(c1ccc(F)cc1)c1c[nH]c2ccccc12` (configuration not stated) had an RP-LC retention time of 782 s.

Regarding `Cc1c(CN2CC(F)(F)C[C@H]2COc2ccncc2)cnn1C`, the RP-LC retention time was determined as 502 s.

In the case of `COc1ccc(CNC(=O)c2ccc3c(c2)OCO3)c(OC)c1`, the RP-LC retention time was 749 s.

As to `CCCn1cc(CCNC(=O)c2cc(F)cc(F)c2)c2cccnc21`, the RP-LC retention time turned out to be 820 s.

Compound `Cc1nnc2n1CCC(N(C)S(=O)(=O)c1ccccc1F)CC2` (configuration not stated) registered an RP-LC retention time of 634 s.

As to `O=C(Nc1ccc(-c2nc(-c3ccc(Cl)cc3)no2)cc1)c1cccs1`, the RP-LC retention time came out at 1240 s.

With `O=C(NCc1ccc2c(c1)OCO2)C1=CCN(Cc2ccccc2)CC1`, the RP-LC retention time worked out at 607 s.

For `CCc1ccc(S(=O)(=O)NCCc2cn(CC(C)C)c3ncccc23)cc1`, the RP-LC retention time stood at 946 s.

`CC(C)NC(=O)c1ccc(-c2nc3cc(NS(=O)(=O)Cc4cccc(F)c4)ccc3n2C)cc1` had an RP-LC retention time of 687 s.

`CC1CCN(c2ncnc3c2cnn3CC(=O)Nc2ccc(Cl)cc2)CC1` showed an RP-LC retention time of 697 s.

As to `O=C(NCCc1ccccc1)C1CCN(c2cc(N3CCCCC3)ncn2)CC1`, the RP-LC retention time stood at 685 s.

As for `CCc1ccc(S(=O)(=O)Nc2ccc3c(c2)nc(-c2ccc(C(=O)NC)cc2)n3C)cc1`, the RP-LC retention time came to 674 s.

As to `CCOc1ccccc1NS(=O)(=O)c1cc(-c2c(CC)noc2NC(C)=O)ccc1OC`, the RP-LC retention time is 840 s.

The compound `COc1ccc(S(=O)(=O)N2CCCC(C(=O)N3CCOCC3)C2)cc1Cl` (configuration not stated) showed an RP-LC retention time of 766 s.

`Cc1ccc(NS(=O)(=O)c2c(C)nc3sc4cc(C)ccc4n3c2=O)c(C)c1`: the RP-LC retention time amounted to 1230 s.

In the case of `COc1ccc(-c2csc(NC(=O)c3ccc(Cl)c(Cl)c3)n2)cc1`, the RP-LC retention time was determined as 1140 s.

In turn, `Cc1oc(-c2ccc(C(=O)NCCCN3CCN(C)CC3)cc2)nc1CS(=O)c1ccccc1` (configuration not stated) returned an RP-LC retention time of 581 s.

`CCOC(=O)c1cc2c(cn1)[nH]c1ccccc12` showed an RP-LC retention time of 691 s.

Compound `Cc1cc(C)cc(Oc2nccn3c(=O)n(CC(=O)Nc4ccccc4C)nc23)c1` gave an RP-LC retention time of 838 s.

For the compound `COCC(=O)N1CCCc2ccc(NC(=O)c3cc(C)oc3C)cc21`, the RP-LC retention time came to 725 s.

`CN(c1nccn2c(=O)n(CC(=O)Nc3ccccc3F)nc12)C1CCCCC1` came in with an RP-LC retention time of 748 s.

Take `COc1nccnc1N1CCC(N(C)C(=O)c2ccc3c(c2)OCO3)C1` (configuration not stated): the RP-LC retention time was found to be 694 s.

Regarding `Cc1cccc(NC(=O)Nc2c(-c3ccc(F)cc3)nc3ccccn23)c1C`, the RP-LC retention time was found to be 697 s.

In turn, `CCOc1nc2ccccc2nc1N1CCCC(C(=O)Nc2ccccc2F)C1` (configuration not stated) displayed an RP-LC retention time of 1200 s.

Compound `COc1ccc(CN2CCC3(CC2)CC(C)(O)CCO3)cc1C` (configuration not stated) yielded an RP-LC retention time of 629 s.

With `COc1ccc(C(=O)O)nc1C`, the RP-LC retention time was found to be 552 s.

`CN(C)C(=O)c1ccc2c(c1)N(CC(=O)N1CCN(C(=O)c3ccco3)CC1)C(=O)C1CCCCN21` (configuration not stated): the RP-LC retention time worked out at 667 s.

With `CN(C)c1ccc(C(=O)Nc2cc(-c3cccs3)no2)cc1`, the RP-LC retention time worked out at 972 s.

Regarding `COc1ccc(NC(=O)N2CCC(n3cnc4cccnc43)CC2)c(OC)c1`, the RP-LC retention time amounted to 633 s.

Take `N#Cc1ccsc1NC(=O)c1ccc2ncsc2c1`: the RP-LC retention time was determined as 725 s.

Compound `Cc1ccc(CNC(=O)c2ccccc2CN2C(=O)C3CCCN3C(=O)c3ccccc32)o1` (configuration not stated) registered an RP-LC retention time of 741 s.

Source of the values: the METLIN SMRT retention time set (Domingo-Almenara et al. 2019).
